From patent US20140178432A1, “PRODUCTION OF DENSE BODIES (DB) FROM HCMV-INFECTED CELLS” (priority 2011, published 2014)
Entries after “also recorded” stand apart in the source; their conditions may differ.

How the values were obtained:
Format in all cases: cell-based, human cytomegalovirus (HCMV)
HCMV strain AD169 = assay: Dense Body (DB) production in human foreskin fibroblasts infected with HCMV strain AD169, electron microscopy; conditions: for infectious virus particles in the cytoplasm of treated cells / accumulation of DB in the cytoplasm (electron microscope): HFF infected with HCMV AD169, 5 days incubation, A: 50 nmol/l, B: 5 nmol/l, C: 500 nmol/l, D: 500 nmol/l; for infectious virus particles in the cytoplasm of treated cells: untreated cells relatively large numbers; for accumulation of DB in the cytoplasm (electron microscope): untreated cells virtually no DB; for concentration that led to optimal results (DB production): HFF infected with HCMV strain AD169
Protocol: (§1) Human foreskin fibroblasts (“human foreskin fibroblasts, HFF”) were added in an amount of 1×10^6 cells per flask in 5 T75-cell culture flasks on the day before the infection. The HCMV strain AD 169 was prepared as a frozen, cell-free virus preparation that was obtained from cells that were present in a late stage of infection. The substances (A), (B), (C), and (D) according to the invention were provided as stock solutions of 50 mmol/l each in DMSO.
The stock solutions were diluted 1:1000 to a final concentration of 50 μmol/l. The solutions were further diluted as follows: A: 1:1000 (50 nmol/l) 12 μml in 12 ml of MEM; B: 1:10,000 (5 nmol/l) 1.2 μml in 12 ml of MEM; C: 1:100 (500 nmol/l) 120 μml in 12 ml of MEM; D: 1,100 (500 nmol/l) 120 μml in 12 ml of MEM.
(§2) The HFF cells were incubated for one hour with the virus preparation at a m.o.i. (“multiplicity of infection”) of ≧≧1 TCID 50/cell (1:20 dilution). Then, the virus supernatant was removed, and an incubation of the infected cells was carried out with the substances according to the invention at the following concentrations: A: 50 nmol/l; B: 5 nmol/l; C: 500 nmol/l; D: 500 nmol/l.
(§3) The cells were incubated for 5 days, whereby a renewal of the substance-containing medium was performed after the first and fourth days. After the incubation, the infected cells were examined by electron microscope in the formation of DB.

HCMV strain TB40/E = assay: Dense Body (DB) production in HUVEC infected with HCMV strain TB40/E, electron microscopy; conditions: for virions in the cytoplasm of the treated batch / concentration of DB in the cytoplasm of the infected cells (electron microscope): HUVEC infected with HCMV TB40/E, A: 300 nmol/l, B: 300 nmol/l, C: 3 μmol/l; for concentration of DB in the cytoplasm of the infected cells (electron microscope): control only a few DB; for concentration that led to optimal results (DB production): HUVEC infected with HCMV strain TB40/E
Protocol: as §1, §2, §3
In another experiment, human endothelial cells from the umbilical vein (HUVEC) were infected with the HCMV strain TB40/E, which was isolated from cells in a late stage of infection. The experimental design corresponds to the one shown under 2.1, whereby the incubation of cells was carried out at the following concentrations of the substances according to the invention: A: 300 nmol/l; B: 300 nmol/l: C: 3 μmol/l; D: […].

clinical HCMV isolate = assay: Dense Body (DB) production in HFF infected with a clinical HCMV isolate, co-cultured with non-infected HFF, electron microscopy; conditions: HFF infected with a clinical isolate of HCMV, co-culture with non-infected HFF
Protocol: HFF were infected with a clinical HCMV isolate, which was isolated from cells in a late stage of infection, as further described above under 2.1. The infected HFF were co-cultivated with non-infected HFF in mini-trays (3,000 cells/recess). Three different ratios of infected/non-infected cells were produced: undiluted; 1:2 diluted; 1:4 diluted. The substances according to the invention were incubated with the cells at the following concentrations: A: 300 nmol/l; B: 300 nmol/l; C: 3 μmol/l; D: 30 μmol/l.
After 5 days of incubation at 37° C., the electron-microscopic study was carried out. […] The greater the dilution with non-infected cells, the fewer DB accumulated in the cytoplasm. In the control batch without a substance according to the invention, only very few DB could be identified. Moreover, the ejection of infectious particles from the cell nucleus was prevented in turn by the addition of the substances according to the invention.

Compound	infectious virus particles in the cytoplasm of treated cells (HCMV strain AD169)	accumulation of DB in the cytoplasm (electron microscope) (HCMV strain AD169)	concentration that led to optimal results (DB production) (HCMV strain AD169) [nmol/L]	virions in the cytoplasm of the treated batch (HCMV strain TB40/E)	concentration of DB in the cytoplasm of the infected cells (electron microscope) (HCMV strain TB40/E)	concentration that led to optimal results (DB production) (HCMV strain TB40/E) [nmol/L]	concentration that led to good results (DB production) (clinical HCMV isolate) [nmol/L]
COc1cccc(N2CCN(C3=Nc4c(F)cccc4[C@H](CC(=O)O)N3c3cc(C(F)(F)F)ccc3OC)CC2)c1 [substance (A), (4S)-{8-fluoro-2-[4-(3-methoxyphenyl)-1-piperazinyl]-3-[2-methoxy-5-(trifluoromethyl)-phenyl]-3,4-dihydro-4-quinazolinyl}acetic acid]	no single infectious virus particle was to be found	large amounts of DB; also recorded: high concentrations of DB	50	no virions could be detected	strong concentration of DB	300	300
COc1c(N2CCC(C(=O)O)CC2)c(F)cc2c(=O)c(C(=O)NCc3ccc(OC(F)(F)F)cc3C)cn(CC(F)(F)F)c12 [substance (C), 1-[6-fluoro-8-methoxy-3-({[2-methyl-4-(trifluoromethoxy)benzyl]amino}carbonyl)-4-oxo-1-(2,2,2-trifluoroethyl)-1,4-dihydroquinolin-7-yl]piperidine-4-carboxylic acid]	no single infectious virus particle was to be found	large amounts of DB; also recorded: high concentrations of DB	500	no virions could be detected	strong concentration of DB	3000	3000
Cc1ccc(N2CCN(C(=O)c3nc(NC(=O)Nc4ccc(OC(F)(F)F)cc4)cn3C)CC2)nc1 [substance (B), N-{1-methyl-2-[(4-(5-methyl-pyridin-2-yl)-piperazin-1-yl)carbonyl]-1H-imidazol-4-yl}-N′-[4-(trifluoromethoxy)phenyl]urea]	no single infectious virus particle was to be found	large amounts of DB; also recorded: high concentrations of DB	5	no virions could be detected	strong concentration of DB	300	300
N#CC1(C(=O)Nc2cc(F)cc(NS(=O)(=O)c3ccc(-c4noc(-c5cccc(N)n5)n4)cc3)c2)CC1 [substance (D), N-{3-[({4-[5-(6-aminopyridin-2yl)-1,2,4-oxadiazol-3-yl]phenyl}sulfonyl)amino]-5-fluorophenyl}-1-cyanocyclopropane carboxamide]	no single infectious virus particle was to be found	large amounts of DB; also recorded: high concentrations of DB	500	no virions could be detected	strong concentration of DB	30000	30000
